Values after ≈ are worked out from the molar mass of the structure shown.
How the values were obtained:
[1] = system: Pseudomonas aeruginosa 1912E; assay: In vitro antibacterial activity (MIC, agar dilution), Biological Example 1; format: cell-based; conditions: 18 h; Pseudomonas aeruginosa 1912E, Table 25; read-out: Minimum Inhibitory Concentration
[2] = system: Citrobacter diversus 2046E; assay: as above; format: cell-based; conditions: Citrobacter koseri, 18 h, Table 25, read-out: Minimum Inhibitory Concentration
[3] = system: Klebsiella aerogenes 1082E; assay: as above; format: cell-based; conditions: 18 h, Table 25, read-out: Minimum Inhibitory Concentration
[4] = system: Klebsiella aerogenes 1976E; assay: as above; format: cell-based; conditions: 18 h, Table 25, read-out: Minimum Inhibitory Concentration
[5] = system: Staphylococcus aureus 241; assay: as above; format: cell-based; conditions: 18 h; Staphylococcus aureus 241, Table 25; read-out: Minimum Inhibitory Concentration
[6] = system: Micrococcus luteus 9341; assay: as above; format: cell-based; conditions: 18 h; Micrococcus luteus 9341, Table 25; read-out: Minimum Inhibitory Concentration
[7] = system: Staphylococcus epidermidis 178; assay: as above; format: cell-based; conditions: 18 h; Staphylococcus epidermidis 178, Table 25; read-out: Minimum Inhibitory Concentration
[8] = system: Staphylococcus aureus 77; assay: as above; format: cell-based; conditions: 18 h; Staphylococcus aureus 77, Table 25; read-out: Minimum Inhibitory Concentration
[9] = system: Staphylococcus aureus giorgio; assay: as above; format: cell-based; conditions: 18 h, Table 25, read-out: Minimum Inhibitory Concentration
[10] = system: Escherichia coli TEM5 3739E; assay: microbe, parasite or virus in culture; format: cell-based; conditions: TEM53739E, 18 h, read-out: Minimum Inhibitory Concentration
[11] = system: Enterobacter cloacae 1194E; assay: microbe, parasite or virus in culture; format: cell-based; conditions: 18 h, read-out: Minimum Inhibitory Concentration
[12] = system: Staphylococcus epidermidis 887E; assay: In vitro antibacterial activity (MIC, agar dilution), Biological Example 1; format: cell-based; conditions: 18 h, Table 25, read-out: Minimum Inhibitory Concentration
[13] = system: Escherichia coli 851E; assay: as above; format: cell-based; conditions: 18 h, Table 25, read-out: Minimum Inhibitory Concentration
[14] = system: Staphylococcus aureus 6538p; assay: as above; format: cell-based; conditions: 18 h, Table 25, read-out: Minimum Inhibitory Concentration
[15] = system: Bacillus subtilis 6633; assay: as above; format: cell-based; conditions: 18 h; Bacillus subtilis 6633, Table 25; read-out: Minimum Inhibitory Concentration
[16] = system: Escherichia coli TEM3 3455E; assay: microbe, parasite or virus in culture; format: cell-based; conditions: TEM33455E, 18 h, read-out: Minimum Inhibitory Concentration
[17] = Acute oral toxicity test; conditions: in vivo, ICR male mouse, 7 days
Procedure: To determine the acute oral toxicity of the compounds prepared in Examples 1 and 34, the test solution containing the compounds in various concentrations were orally administered to ICR male mouse in an amount of 10 ml per kg of body weight. For 7 days after administration, the lethality and the conditions of test mouse were observed, from which LD50 value (mg/kg), was calculated.

[18] = system: Enterobacter cloacae P99; assay: microbe, parasite or virus in culture; format: cell-based; conditions: P99, 18 h, read-out: Minimum Inhibitory Concentration
[19] = system: Streptococcus faecalis 29212; assay: In vitro antibacterial activity (MIC, agar dilution), Biological Example 1; format: cell-based; conditions: Enterococcus faecalis, 18 h; Streptococcus faecalis 29212, Table 25; read-out: Minimum Inhibitory Concentration
[20] = system: Escherichia coli 10536; assay: as above; format: cell-based; conditions: 18 h; Escherichia coli 10536, Table 25; read-out: Minimum Inhibitory Concentration
[21] = system: Pseudomonas aeruginosa 10145; assay: as above; format: cell-based; conditions: 18 h; Pseudomonas aeruginosa 10145, Table 25; read-out: Minimum Inhibitory Concentration
[22] = system: Salmonella typimurium 14028; assay: as above; format: cell-based; conditions: 18 h; Salmonella typimurium 14028, Table 25; read-out: Minimum Inhibitory Concentration
[23] = system: Escherichia coli 3190Y; assay: as above; format: cell-based; conditions: 18 h, Table 25, read-out: Minimum Inhibitory Concentration
[24] = system: Acinetobacter calcoaceticus 15473; assay: as above; format: cell-based; conditions: 18 h; Acinetobacter calcoaceticus 15473, Table 25; read-out: Minimum Inhibitory Concentration
[25] = system: Escherichia coli TEM9 2639E; assay: microbe, parasite or virus in culture; format: cell-based; conditions: TEM92639E, 18 h, read-out: Minimum Inhibitory Concentration

Structure (SMILES): NCC1CN(c2nc3c(cc2F)c(=O)c(C(=O)O)cn3C2CC2)CC1=NOCc1ccccc1 (stereo not shown) [Example 1, 7-(4-aminomethyl-3-benzyloxyimino-pyrrolidin-1-yl)-1-cyclopropyl-6-fluoro-1,4-dihydro-4-oxo-1,8-naphthyridine-3-carboxylic acid]
- MIC [1]: 1 µg/mL (≈ 2.15 µM)
- MIC [2]: 0.063 µg/mL (≈ 0.135 µM)
- MIC [3]: 0.063 µg/mL (≈ 0.135 µM)
- MIC [4]: 0.25 µg/mL (≈ 0.537 µM)
- MIC [5]: 2 µg/mL (≈ 4.3 µM)
- MIC [6]: 0.063 µg/mL (≈ 0.135 µM)
- MIC [7]: 2 µg/mL (≈ 4.3 µM)
- MIC [8]: ≤ 0.008 µg/mL
- MIC [9]: ≤ 0.008 µg/mL
- MIC [10]: 0.063 µg/mL (≈ 0.135 µM)
- MIC [11]: 0.031 µg/mL (≈ 0.0666 µM)
- MIC [12]: ≤ 0.008 µg/mL
- MIC [13]: 0.016 µg/mL (≈ 0.0344 µM)
- MIC [14]: ≤ 0.008 µg/mL
- MIC [15]: ≤ 0.008 µg/mL
- MIC [16]: 0.25 µg/mL (≈ 0.537 µM)
- LD50 at 168 h [17]: > 3000 mg/kg
- MIC [18]: ≤ 0.008 µg/mL
- MIC [19]: 0.031 µg/mL (≈ 0.0666 µM)
- MIC [20]: ≤ 0.008 µg/mL
- MIC [21]: 2 µg/mL (≈ 4.3 µM)
- MIC [22]: 0.13 µg/mL (≈ 0.279 µM)
- MIC [23]: ≤ 0.008 µg/mL
- MIC [24]: ≤ 0.008 µg/mL
- MIC [25]: 0.063 µg/mL (≈ 0.135 µM)
